Source: ChEMBL document CHEMBL5154690, “Discovery of a tricyclic farnesoid X receptor agonist HEC96719, a clinical candidate for treatment of non-alcoholic steatohepatitis” (Eur J Med Chem, 2022)
Activity calls are given as the source filed them. The rule behind the calls is not given here.

Tests used:
Bile acid receptor [1] = target: T1, Bile acid receptor (Homo sapiens, UniProt Q96RI1); assay: Agonist activity at human FXR expressed in HEK293T cells by luciferase reporter assay; type: cell-based
T1 sequence (Q96RI1 whole entry): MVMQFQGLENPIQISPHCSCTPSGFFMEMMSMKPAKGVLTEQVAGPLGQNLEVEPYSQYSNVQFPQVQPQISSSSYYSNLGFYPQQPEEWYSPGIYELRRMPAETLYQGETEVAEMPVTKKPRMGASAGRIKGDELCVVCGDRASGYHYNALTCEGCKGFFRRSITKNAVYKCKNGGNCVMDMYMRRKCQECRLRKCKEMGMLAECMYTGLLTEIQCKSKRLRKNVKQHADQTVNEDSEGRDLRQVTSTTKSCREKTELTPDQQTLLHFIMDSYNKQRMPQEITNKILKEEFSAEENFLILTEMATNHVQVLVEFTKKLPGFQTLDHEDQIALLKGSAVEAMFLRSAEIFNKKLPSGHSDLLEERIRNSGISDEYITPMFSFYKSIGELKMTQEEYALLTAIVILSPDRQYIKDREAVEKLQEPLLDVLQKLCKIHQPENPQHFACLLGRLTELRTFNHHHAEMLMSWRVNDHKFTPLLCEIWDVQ

Bile acid receptor [2] = target: T1, Bile acid receptor; assay: Agonist activity at FXR-LBD (unknown origin) assessed as induction of coactivator SRC-1 peptide recruitment measured by TR-FRET assay
[3] = AUC (0 to t) in male Sprague-Dawley rat at 5 mg/kg, po measured by LC-MS/MS analysis; type: ADME, organism-based; design: dose 5 mg/kg, route po; settings: in vivo
[4] = Cmax in male Sprague-Dawley rat at 5 mg/kg, po measured by LC-MS/MS analysis; type: ADME, organism-based; design: dose 5 mg/kg, route po; settings: in vivo
Mus musculus [5] = assay: Anti-NASH activity against high fat (HF) diet-induced nonalcoholic steatohepatitis in leptin-deficient ob/ob mouse model assessed as reduction in serum ALT level at 3 mg/kg, po administered once daily from week 5 to 10; type: functional, organism-based
[6] = Oral bioavailability in male Sprague-Dawley rat at 5 mg/kg measured by LC-MS/MS analysis; type: ADME, organism-based; settings: in vivo
[7] = Clearance in male Sprague-Dawley rat at 1 mg/kg, iv measured by LC-MS/MS analysis; type: ADME, organism-based; settings: in vivo
[8] = Half-life in male Sprague-Dawley rat at 5 mg/kg, po measured by LC-MS/MS analysis; type: ADME, organism-based; settings: in vivo
[9] = AUC (0 to t) in male Sprague-Dawley rat at 1 mg/kg, iv measured by LC-MS/MS analysis; type: ADME, organism-based; design: dose 1 mg/kg, route iv; settings: in vivo
[10] = Volume of distribution at steady state in male Sprague-Dawley rat at 1 mg/kg, iv measured by LC-MS/MS analysis; type: ADME, organism-based; settings: in vivo, read-out: Vdss
Mus musculus [11] = assay: Anti-NASH activity against high fat (HF) diet-induced nonalcoholic steatohepatitis in leptin-deficient ob/ob mouse model assessed as reduction in liver cholesterol level at 3 mg/kg, po administered once daily from week 5 to 10; type: functional, organism-based
Mus musculus [12] = assay: Anti-NASH activity against high fat (HF) diet-induced nonalcoholic steatohepatitis in leptin-deficient ob/ob mouse model assessed as reduction in serum TG level at 3 mg/kg, po administered once daily from week 5 to 10; type: functional, organism-based
[13] = Toxicity in alpha-naphthyl- isothiocyanate (ANIT)-induced cholestatic injury model of Sprague-Dawley rat assessed as effect on […] death; settings: in vivo
[14] = Toxicity in alpha-naphthyl- isothiocyanate (ANIT)-induced cholestatic injury model of Sprague-Dawley rat assessed as effect on […] death at 10 mg/kg, po administered once daily for 4 days; type: organism-based; settings: in vivo, 96 h, time 4 day

In the case of `CC1=Cc2nc(OCc3c(-c4c(Cl)cccc4Cl)noc3C3CC3)ccc2Oc2cc(C(=O)O)ccc21`, the EC50 (Bile acid receptor [1]) is reported as 87.3 nM and the EC50 (Bile acid receptor [2]) is reported as 6.03 nM.
Work on `O=C(O)c1cc(F)c2c(c1)Oc1ccc(OCc3c(-c4c(Cl)cccc4Cl)noc3C3CC3)nc1CC2` yielded an EC50 (Bile acid receptor [1]) of 372 nM.
Molecule `O=C(O)c1ccc2c(c1)Oc1ccc(OCc3c(-c4c(Cl)cccc4Cl)noc3C3CC3)nc1CC2` has an AUC(0-t) [3] of 1250 ng·h/mL, a Cmax [4] of 3000 ng/mL and an EC50 (Bile acid receptor [1]) of 102 nM. For the same molecule, the Activity (Mus musculus [5]) was “Active”, the bioavailability [6] was 37.1% and the clearance [7] was 14.3 mL/min/kg. It also gave a half-life [8] of 44.4 min, an AUC(0-t) [9] of 1180 ng·h/mL and a Vd [10] of 0.4 L/kg. For the same molecule, the Activity (Mus musculus [11]) was “Active”, the EC50 (Bile acid receptor [2]) was 3.57 nM and the Activity (Mus musculus [12]) was “Active”. The Activity [13] was “Non-Toxic”.
With `O=C(O)c1ccc2c(c1)Oc1ccc(OCc3c(-c4c(Cl)cccc4Cl)noc3C3CC3)cc1CC2` the EC50 (Bile acid receptor [1]) was 345 nM, the Activity [14] was “Toxic” and the EC50 (Bile acid receptor [2]) was 833 nM.
For `CC1Cc2ccc(C(=O)O)cc2Oc2ccc(OCc3c(-c4c(Cl)cccc4Cl)noc3C3CC3)nc21` (stereo unspecified), the AUC(0-t) [3] was 2230 ng·h/mL, the Cmax [4] was 1280 ng/mL and the Activity (Mus musculus [5]) was “Active”. For the same molecule, the bioavailability [6] was 44.9%, the clearance [7] was 30.3 mL/min/kg and the half-life [8] was 55.8 min. For the same molecule, the AUC(0-t) [9] was 554 ng·h/mL, the Vd [10] was 0.54 L/kg and the Activity (Mus musculus [11]) was “Active”. The Activity (Mus musculus [12]) was “Active”.
For `O=C(O)c1ccc2c(c1)Oc1cnc(OCc3c(-c4c(Cl)cccc4Cl)noc3C3CC3)cc1CC2`, the EC50 (Bile acid receptor [1]) was 161 nM and the EC50 (Bile acid receptor [2]) was 11.7 nM.
Molecule `O=C(O)c1ccc2c(c1)Oc1ccc(OCc3c(-c4c(Cl)cccc4Cl)noc3C3CC3)nc1C=C2F` has an EC50 (Bile acid receptor [1]) of 219 nM and an EC50 (Bile acid receptor [2]) of 17.3 nM.
For `CC1=Cc2ccc(C(=O)O)cc2Oc2ccc(OCc3c(-c4c(Cl)cccc4Cl)noc3C3CC3)nc21`, the AUC(0-t) [3] was 1180 ng·h/mL, the Cmax [4] was 2210 ng/mL and the Activity (Mus musculus [5]) was “Active”. It also gave a bioavailability [6] of 46.2%, a clearance [7] of 17.5 mL/min/kg and a half-life [8] of 72 min. For the same molecule, the AUC(0-t) [9] was 963 ng·h/mL, the Vd [10] was 0.35 L/kg and the Activity (Mus musculus [11]) was “Active”. The Activity (Mus musculus [12]) was “Active”.
In the case of `O=C(O)c1ccc2c(c1)Oc1ccc(OCc3c(-c4c(Cl)cccc4Cl)noc3C3CC3)nc1CO2`, the EC50 (Bile acid receptor [1]) is reported as 114 nM and the EC50 (Bile acid receptor [2]) is reported as 14.3 nM.
In the case of `O=C(O)c1ccc2c(c1)Oc1ncc(OCc3c(-c4c(Cl)cccc4Cl)noc3C3CC3)cc1CC2`, the EC50 (Bile acid receptor [2]) is reported as 37 nM.
